Test system: IKZF1/3
Assay: Western blot of IKZFs in MM1S cells
Format: cell-based, human
Procedure: FIGS. 10A and 10B are western blot analysis of MM1S cells treated with selected candidates from C4-lined series (FIG. 10A) and C5-lined series (FIG. 10B) for 6 h.
FIGS. 12A, 12B, and 12C are a series of western blots showing that degrader 12d selectively promotes HDAC6 degradation in MM1S cells.
As discussed before, pomalidomide and its analogues are known to activate CRBN's E3 ligase activity for the degradation of IKZFs. […] IKZFs regulate the expression of interferon regulatory factor 4 (IRF4) and c-Myc to affect the proliferation of multiple myeloma (MM). […] PROTACs with IKZF degradation activity have been reported in a number of cases and the IKZFs are often considered as “off-targets” during the development of these PROTACs. The results presented here indicate that the IKZF degradation activity can be impacted by the linker position and the functional group next to the phthalimide ring. In the studies, the triazole ring linked to C4 position likely contributed to the induced interaction between CRBN and IKZFs.
To evaluate the activity and selectivity of 12d, a full dose response experiment was performed with compound concentrations ranging from 0.3 nM to 10 μM in MM1S cells (FIG. 12A) for several HDACs, IKZFs, and Ac-tubulin. […] Degrader 12d reduced HDAC6 protein content at as low as 3 nM and achieved maximal effects around 30 nM. […] See Douglass et al. 2013, supra. The degradation of IKZFs started from 30 nM and was dose-dependent. It is interesting to see the more efficient degradation of HDAC6, which requires the formation of ternary complex, than that of IKZFs, which only requires the formation of binary complex. In addition to the distinct mechanism, the different turnover rates of HDAC6 and IKZFs may also contribute to the observed results. The acetylated tubulin level was also dose-dependent. At higher concentrations (3 μM and 10 μM), tubulin acetylation was not […] in response to recovered HDAC6 expression by “hook effect”. The elevated tubulin acetylation at higher concentrations was likely due to the combination of HDAC6 degradation and HDAC6 inhibition.
To probe the efficiency of 12d, MM1S was treated with 100 nM 12d and the change of HDAC6 protein level was monitored by time. The HDAC6 degradation started around 1 h and reached maximal degradation effect at 4 h. The degradation of IKZFs was only observed after 4 h. Meanwhile, HDAC1 was not affected and the acetylation of tubulin was accumulated by time. […] HDAC6 expression was monitored for 48 h. […]
When the cells reached 90% confluence, they were harvested and plated 1×10^6 cells per well in 6-well plate. […] Protein concentration was measured by using the Pierce BCA protein assay (Thermo Fisher Scientific). […]

In the case of CCCCN(Cc1ccc(C(=O)NO)cc1)C(=O)Nc1ccc(OCCCCCn2cc(CNc3cccc4c3C(=O)N(C3CCC(=O)NC3=O)C4=O)nn2)cc1 (stereo not shown) [Compound 12d, 4-((1-butyl-3-(4-((5-(4-(((2-(2,6-dioxopiperidin-3-yl)-1,3-dioxoisoindolin-4-yl)amino)methyl)-1H-1,2,3-triazol-1-yl)pentyl)oxy)phenyl)ureido)methyl)-N-hydroxybenzamide], the “IKZF3 recovery after wash-out” value (100 nM for 6 h, washed with PBS, after 12 h) is reported as “quickly recovered”, the “induced degradation of IKZF1/3” value (100 nM, 6 h, MM1S) is reported as “retained the induced degradation” and the “time after which degradation of IKZFs was observed” value (100 nM, MM1S) is reported as over 4 h. The “concentration from which degradation of IKZFs started” value (12d dose response 0.3 nM to 10 μM, MM1S) was at least 30 nM.
